By IC50 is commonly meant the concentration needed to halve the response being measured.

Holding throughout (format): biochemical
The target of one experiment is hPDE10A (Homo sapiens, UniProt Q9Y233). Description: PDE10 inhibition assay (IC50), Experimental Example 3. To be noted: for IC50: hPDE10A, read-out: PDE inhibition assay IC50, PDE10; for inhibition at 10 µM: at 10 μmol/L. An outline of the steps:
(§1)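 Recombinant human enzymes incubated with compound and 3 nmol/L cAMP (final) in Tris-HCl pH 7.5 buffer with MgCl2, BSA, DTT, 2% DMSO final, 60 min at room temperature. Residual cAMP measured by TR-FRET (LANCE Ultra), reaction stopped with 0.5 mmol/L IBMX. IC50 from inhibition relative to no-compound (0%) and no-enzyme (100%) controls.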

The next experiment concerns the target T1, hPDE4D (Homo sapiens, UniProt Q08499).
T1 construct: purchased SB Drug Discovery
Briefly: PDE4 inhibition assay (IC50), Experimental Example 3. The note with it: for IC50: hPDE4D, read-out: PDE inhibition assay IC50, PDE4; for inhibition at 10 µM: at 10 μmol/L. Summed up:
as §1

The next experiment concerns the target T2, hPDE8B (Homo sapiens, UniProt O95263).
T2 construct: purchased SB Drug Discovery
Briefly: PDE8 inhibition assay (IC50), Experimental Example 3. The note with it: for inhibition at 1 µM: at 1 μmol/L; for inhibition at 1 µM / inhibition at 0.1 µM / inhibition at 10 µM: read-out: inhibition rate (%) at prescribed concentration, PDE8; for IC50: hPDE8B, read-out: PDE inhibition assay IC50, PDE8; for inhibition at 0.1 µM: at 0.1 μmol/L; for inhibition at 10 µM: at 10 μmol/L. Summed up: as §1

The target in a further experiment is T3, Human PDE7B (hPDE7B) (Homo sapiens, UniProt Q9NP56).
T3 construct: made in house; host or cells: COS-7 cells
Briefly: Measurement of PDE7 inhibitory activity (Experimental Example 1; residual cAMP, LANCE Ultra cAMP TR-FRET). The note with it: cAMP 3 nmol/L, room temperature 60 minutes. An outline of the steps: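 hPDE7B from transfected COS-7 cells reacted with 3 nmol/L cAMP (final) and compound (2% DMSO) in 50 mmol/L Tris-HCl pH 7.5, 1 mmol/L MgCl2, 0.1% BSA, 0.5 mmol/L DTT, 60 min at room temperature. Reaction stopped with IBMX; residual cAMP measured by TR-FRET. Inhibition scaled between no-compound and no-enzyme controls.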
On the technique in general: In TR-FRET formats the signal depends on donor and acceptor labels being close together.

Setting [1] is: read-out: inhibition rate (%) at prescribed concentration, PDE10.
Where [2] appears, read: read-out: inhibition rate (%) at prescribed concentration, PDE4.

T2 sequence (O95263 whole entry): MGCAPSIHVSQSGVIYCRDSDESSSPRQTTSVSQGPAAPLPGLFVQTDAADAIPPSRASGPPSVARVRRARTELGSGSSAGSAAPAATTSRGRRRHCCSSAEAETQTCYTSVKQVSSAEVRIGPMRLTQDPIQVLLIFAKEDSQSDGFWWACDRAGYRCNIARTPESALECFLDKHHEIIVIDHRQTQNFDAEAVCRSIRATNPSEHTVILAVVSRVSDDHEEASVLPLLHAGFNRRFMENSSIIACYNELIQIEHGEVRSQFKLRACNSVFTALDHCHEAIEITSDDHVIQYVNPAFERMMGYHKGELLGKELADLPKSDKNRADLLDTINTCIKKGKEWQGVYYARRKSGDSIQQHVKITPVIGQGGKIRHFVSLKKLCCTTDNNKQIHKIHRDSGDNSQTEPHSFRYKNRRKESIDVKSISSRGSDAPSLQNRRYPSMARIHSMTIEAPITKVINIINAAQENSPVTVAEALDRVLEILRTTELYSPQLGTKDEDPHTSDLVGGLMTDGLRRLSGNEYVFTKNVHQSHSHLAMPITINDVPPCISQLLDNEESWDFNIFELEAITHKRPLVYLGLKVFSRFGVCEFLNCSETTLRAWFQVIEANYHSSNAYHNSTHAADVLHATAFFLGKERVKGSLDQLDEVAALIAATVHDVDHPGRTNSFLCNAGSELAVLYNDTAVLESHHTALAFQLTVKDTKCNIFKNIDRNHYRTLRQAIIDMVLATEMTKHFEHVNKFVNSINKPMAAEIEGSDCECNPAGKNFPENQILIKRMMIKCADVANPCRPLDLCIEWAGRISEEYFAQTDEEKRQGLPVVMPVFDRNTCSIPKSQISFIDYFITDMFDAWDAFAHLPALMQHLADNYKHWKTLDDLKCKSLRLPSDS
T3 sequence (Q9NP56 whole entry): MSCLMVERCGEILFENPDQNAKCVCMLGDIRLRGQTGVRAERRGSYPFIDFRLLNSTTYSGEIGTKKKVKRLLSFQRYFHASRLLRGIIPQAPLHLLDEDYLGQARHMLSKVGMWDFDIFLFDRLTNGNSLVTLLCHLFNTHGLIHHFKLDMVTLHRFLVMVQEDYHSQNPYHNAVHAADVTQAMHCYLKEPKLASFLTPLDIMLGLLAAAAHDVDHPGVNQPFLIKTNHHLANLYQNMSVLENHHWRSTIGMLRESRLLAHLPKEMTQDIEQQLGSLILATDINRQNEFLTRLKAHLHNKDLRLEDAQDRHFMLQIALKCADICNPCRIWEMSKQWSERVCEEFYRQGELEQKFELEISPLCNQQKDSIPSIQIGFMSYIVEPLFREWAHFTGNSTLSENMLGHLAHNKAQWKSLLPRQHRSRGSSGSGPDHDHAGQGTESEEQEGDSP
Chain of hPDE10A (Q9Y233 290-1055 limits assumed): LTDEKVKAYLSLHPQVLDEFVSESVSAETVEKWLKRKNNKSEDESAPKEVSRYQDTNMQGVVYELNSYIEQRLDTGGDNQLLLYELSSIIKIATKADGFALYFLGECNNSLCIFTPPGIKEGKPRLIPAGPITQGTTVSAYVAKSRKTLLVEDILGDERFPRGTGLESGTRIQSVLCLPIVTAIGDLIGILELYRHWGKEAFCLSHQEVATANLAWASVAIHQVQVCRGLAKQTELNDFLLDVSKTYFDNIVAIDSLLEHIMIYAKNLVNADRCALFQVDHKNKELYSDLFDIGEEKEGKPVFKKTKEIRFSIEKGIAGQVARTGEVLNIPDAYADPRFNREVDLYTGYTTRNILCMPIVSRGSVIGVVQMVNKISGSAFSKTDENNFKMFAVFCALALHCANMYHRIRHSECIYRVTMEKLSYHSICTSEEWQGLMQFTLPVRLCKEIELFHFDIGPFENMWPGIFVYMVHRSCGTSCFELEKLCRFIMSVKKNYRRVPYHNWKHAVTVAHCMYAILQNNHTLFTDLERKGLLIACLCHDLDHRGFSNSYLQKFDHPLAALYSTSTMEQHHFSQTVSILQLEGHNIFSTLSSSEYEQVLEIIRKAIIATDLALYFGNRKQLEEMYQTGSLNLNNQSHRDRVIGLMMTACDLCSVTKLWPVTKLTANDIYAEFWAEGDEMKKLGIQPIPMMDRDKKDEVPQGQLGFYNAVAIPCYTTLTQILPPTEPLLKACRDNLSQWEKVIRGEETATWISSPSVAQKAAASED
T1 sequence (Q08499 whole entry): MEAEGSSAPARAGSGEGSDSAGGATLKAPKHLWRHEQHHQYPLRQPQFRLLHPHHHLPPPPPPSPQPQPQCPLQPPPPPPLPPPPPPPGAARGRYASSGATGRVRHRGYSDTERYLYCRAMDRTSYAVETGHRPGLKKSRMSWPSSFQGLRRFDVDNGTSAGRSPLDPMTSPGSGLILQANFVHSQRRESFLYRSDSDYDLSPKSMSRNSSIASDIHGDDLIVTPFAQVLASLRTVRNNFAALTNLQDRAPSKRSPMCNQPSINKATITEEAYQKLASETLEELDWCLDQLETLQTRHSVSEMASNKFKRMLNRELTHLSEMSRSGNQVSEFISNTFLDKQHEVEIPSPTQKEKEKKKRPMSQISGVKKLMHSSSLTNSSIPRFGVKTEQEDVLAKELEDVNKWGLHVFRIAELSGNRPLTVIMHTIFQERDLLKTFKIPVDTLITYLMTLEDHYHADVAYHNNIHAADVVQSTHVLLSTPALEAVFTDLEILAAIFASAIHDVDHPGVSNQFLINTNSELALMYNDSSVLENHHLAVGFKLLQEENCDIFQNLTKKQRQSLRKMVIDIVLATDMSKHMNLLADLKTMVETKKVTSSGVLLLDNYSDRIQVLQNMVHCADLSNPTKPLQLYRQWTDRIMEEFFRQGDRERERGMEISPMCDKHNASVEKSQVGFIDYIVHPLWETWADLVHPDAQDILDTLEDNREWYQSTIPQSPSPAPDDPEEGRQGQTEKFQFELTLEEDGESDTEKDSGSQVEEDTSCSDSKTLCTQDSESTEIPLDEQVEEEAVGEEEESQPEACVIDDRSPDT

For `Nc1nccn2c(N3CCCC(Cc4ccccc4)C3)nnc12` (stereo not shown) [Example 48], the inhibition at 1 µM at hPDE10A (at 1 μmol/L, read-out: inhibition rate (%) at prescribed concentration, PDE10) was determined as 52%; at hPDE8B, 79%. In addition, the figures for the half-maximal inhibitory concentration (IC50) at hPDE4D and against Human PDE7B (hPDE7B) were 1.3 µM and 0.07 µM, respectively.

Consider `C[C@@H]1C[C@H](C)CN(c2nnc3c(N)nccn23)C1` [Example 52], for which the IC50 on hPDE10A is 6.8 µM; at hPDE4D, 8.19 µM; at hPDE8B, 1.16 µM; against Human PDE7B (hPDE7B) it was 0.08 µM.

As for `Nc1nccn2c(N3C4CCCC3CC4)nnc12` [Example 67], the IC50 turned out to be 31.8 µM at hPDE10A, 21 µM at hPDE4D, 15 µM on hPDE8B and 0.09 µM at Human PDE7B (hPDE7B).

With `Nc1ncnn2c(C3CCCCC3)nnc12` [Example 68, 3-cyclohexyl[1,2,4]triazolo[3,4-f][1,2,4]triazin-8-amine], at hPDE10A (setting [1]), the inhibition at 10 µM was 34%. For the same compound, the IC50 on hPDE4D came to 4.13 µM; on hPDE8B, 0.5 µM; at Human PDE7B (hPDE7B) it was 0.02 µM.

`Cc1cnc(N)c2nnc(N3CCCC(C)(C)C3)n12` [Example 80, 3-(3,3-dimethylpiperidin-1-yl)-5-methyl[1,2,4]triazolo[4,3-a]pyrazin-8-amine]: the IC50 at hPDE10A came to 8 µM; on hPDE4D, 6 µM; at hPDE8B it was 3 µM; against Human PDE7B (hPDE7B), 0.003 µM.

As for `Nc1ncnc2c1nnn2[C@@H]1CCCOC1` [Example 90], the IC50 on hPDE10A was found to be 19 µM; on hPDE4D, 3.7 µM; against Human PDE7B (hPDE7B), 0.12 µM. Further, the inhibition at 1 µM on hPDE8B amounted to 59%.

For the compound `C[C@H]1CC[C@@H](n2nnc3c(N)ncnc32)CC1` [Example 99, 3-(cis-4-methylcyclohexyl)-3H-[1,2,3]triazolo[4,5-d]pyrimidin-7-amine], on hPDE10A (setting [1]), the inhibition at 10 µM turned out to be 38%. The IC50 amounted to 1.6 µM at hPDE4D, 0.12 µM on hPDE8B and 0.02 µM on Human PDE7B (hPDE7B).

For the compound `CC1(C)CCC(n2nnc3c(N)ncnc32)CC1` [Example 101, 3-(4,4-dimethylcyclohexyl)-3H-[1,2,3]triazolo[4,5-d]pyrimidin-7-amine], the IC50 at hPDE10A stood at 5.84 µM; on hPDE4D, 0.64 µM; against Human PDE7B (hPDE7B), 0.02 µM. Also, on hPDE8B, the inhibition at 0.1 µM stood at 69%.

Regarding `Nc1ncnc2c1nnn2C1CCC(F)(F)CC1` [Example 104], the inhibition at 10 µM at hPDE10A (setting [1]) turned out to be 25%. Further, the results for the half-maximal inhibitory concentration (IC50) at hPDE4D, at hPDE8B and on Human PDE7B (hPDE7B) were 9.45 µM, 2.06 µM and 0.17 µM, respectively.

Take `Nc1ncnc2c1nnn2C1CCCCCC1` [Example 110, 3-cycloheptyl-3H-[1,2,3]triazolo[4,5-d]pyrimidin-7-amine]: at hPDE10A (setting [1]), the inhibition at 10 µM amounted to 33%. Also, the IC50 on hPDE4D was determined as 3.5 µM; at hPDE8B, 0.59 µM; against Human PDE7B (hPDE7B) it was 0.03 µM.

As for `CN1CCC[C@H](n2nnc3c(N)ncnc32)C1` [Example 135, 3-[(3S)-1-methylpiperidin-3-yl]-3H-[1,2,3]triazolo[4,5-d]pyrimidin-7-amine], the inhibition at 10 µM on hPDE10A (setting [1]) turned out to be 22%; on hPDE4D (setting [2]) it was 17%. Also, the IC50 at hPDE8B is 9.41 µM; against Human PDE7B (hPDE7B), 0.31 µM.

As for `Nc1nccn2c(C3(F)CCCCC3)nnc12` [Example 142, 3-(1-fluorocyclohexyl) [1,2,4]triazolo[4,3-a]pyrazin-8-amine], the figures for the inhibition at 10 µM at hPDE10A (setting [1]) and at hPDE8B were 48% and 49%, respectively. In addition, the results for the IC50 at hPDE4D and on Human PDE7B (hPDE7B) were 5.72 µM and 0.05 µM, respectively.

`C[C@H]1CC[C@H](c2nnc3c(N)nccn32)CC1` [Example 149, 3-(trans-4-methylcyclohexyl) [1,2,4]triazolo[4,3-a]pyrazin-8-amine]: the inhibition at 10 µM on hPDE10A (setting [1]) was determined as 46%. For the same compound, the IC50 at hPDE4D is 2.2 µM; at hPDE8B, 1.66 µM; against Human PDE7B (hPDE7B), 0.04 µM.

On to `CC1CCC(F)(F)CC1c1nnc2c(N)nccn12` (stereo not shown) [Example 153], for which the IC50 on hPDE10A stood at 18.6 µM; at hPDE4D, 35.1 µM; on hPDE8B, 21.9 µM; on Human PDE7B (hPDE7B) it was 0.07 µM.

As to `Nc1nccn2c(C3CCc4[nH]ncc4C3)nnc12` (stereo not shown) [Example 159], the IC50 on hPDE10A is 10.6 µM; on hPDE4D, 4.77 µM; on hPDE8B, 3.51 µM; on Human PDE7B (hPDE7B) it was 0.06 µM.

`Nc1nccn2c([C@@H]3C[C@@H]4[C@H](C3)C4(F)F)nnc12` [Example 160]: the IC50 on hPDE10A stood at 34.9 µM; on hPDE4D, 3.41 µM; against Human PDE7B (hPDE7B), 0.08 µM. The inhibition at 1 µM at hPDE8B worked out at 54%.

Turning to `Nc1nccn2c(C3CCCC3)nnc12` [Example 161], the inhibition at 10 µM on hPDE10A (setting [1]) stood at 27%. For the same compound, the IC50 was determined as 5.5 µM at hPDE4D, 1.77 µM on hPDE8B and 0.11 µM against Human PDE7B (hPDE7B).

With `Nc1nccn2c(C3[C@H]4CCCC[C@@H]34)nnc12` (stereo partly drawn) [Example 164, 3-[(1R,6S,7r)-bicyclo[4.1.0]hept-7-yl][1,2,4]triazolo[4,3-a]pyrazin-8-amine], the inhibition at 10 µM on hPDE10A (setting [1]) amounted to 41%. Further, the IC50 is 3.79 µM on hPDE4D, 4.4 µM on hPDE8B and 0.03 µM against Human PDE7B (hPDE7B).

Consider `Nc1nccn2c(N3CCCCC3)nnc12` [Example 166], for which the inhibition at 10 µM on hPDE10A (setting [1]) was 39%. The IC50 was found to be 3.87 µM on hPDE4D, 8.89 µM on hPDE8B and 0.16 µM on Human PDE7B (hPDE7B).

Take `CC(C)(C)OC(=O)N1CCC[C@H](c2nnc3c(N)nccn23)C1` [Example 167]: the IC50 was determined as 3.7 µM on hPDE10A and 0.06 µM against Human PDE7B (hPDE7B). Further, the inhibition at 0.1 µM is 66% on hPDE4D (at 0.1 μmol/L, read-out: inhibition rate (%) at prescribed concentration, PDE4) and 98% on hPDE8B.

As to `Nc1nccn2c(C3CCCOC3)nnc12` (stereo not shown) [Example 169], the values for the IC50 at hPDE10A, on hPDE8B and at Human PDE7B (hPDE7B) were 20.8 µM, 1.74 µM and 0.09 µM, respectively. Moreover, the inhibition at 10 µM on hPDE4D (setting [2]) was found to be 33%.

For `Cc1cnc(N)c2nnc(C3CCCCC3)n12` [Example 171, 3-cyclohexyl-5-methyl[1,2,4]triazolo[4,3-a]pyrazin-8-amine], the IC50 at hPDE10A came to 7.2 µM; at hPDE8B, 2.95 µM; against Human PDE7B (hPDE7B) it was 0.07 µM. Moreover, at hPDE4D (setting [2]), the inhibition at 10 µM turned out to be 48%.

As to `Nc1nccn2c([C@H]3[C@@H]4CCC[C@@H]43)nnc12` [Example 179, 3-[(1R,5S,6r)-bicyclo[3.1.0]hex-6-yl][1,2,4]triazolo[4,3-a]pyrazin-8-amine], the IC50 at hPDE10A stood at 17.9 µM; on hPDE4D it was 4.7 µM; at hPDE8B, 4 µM; against Human PDE7B (hPDE7B), 0.08 µM.

Take `Nc1nccn2c(C3CCCCC3)ncc12` [Example 180, 3-cyclohexylimidazo[1,5-a]pyrazin-8-amine]: the inhibition at 10 µM at hPDE10A (setting [1]) came to 41%; at hPDE8B, 36%. Moreover, the IC50 was 7.8 µM at hPDE4D and 0.39 µM against Human PDE7B (hPDE7B).

Turning to `Nc1ncnc2c1cnn2C1CCCCC1` [Example 181], the inhibition at 10 µM on hPDE10A (setting [1]) was found to be 49%; at hPDE4D (setting [2]), 21%; on hPDE8B it was 24%. At Human PDE7B (hPDE7B), this compound had an IC50 of 0.34 µM.

With `Cc1nn(C2CCCCC2)c2ncnc(N)c12` [Example 184], the IC50 worked out at 0.5 µM on hPDE10A and 0.54 µM against Human PDE7B (hPDE7B). In addition, the inhibition at 10 µM on hPDE4D (setting [2]) worked out at 48%; at hPDE8B, 18%.

In the case of `Nc1cccn2c(C3CCCCC3)nnc12` [Example 186, 3-cyclohexyl[1,2,4]triazolo[4,3-a]pyridin-8-amine], the inhibition at 10 µM on hPDE10A (setting [1]) was 7%; on hPDE4D (setting [2]), -5%; at hPDE8B, -1%. The IC50 against Human PDE7B (hPDE7B) turned out to be 0.46 µM.

On to `Nc1ncnc2c(C3CCCCC3)noc12` [Example 188, 3-cyclohexylisoxazolo[4,5-d]pyrimidin-7-amine], for which the results for the inhibition at 10 µM at hPDE10A (setting [1]) and on hPDE4D (setting [2]) were 50% and 38%, respectively. Besides, the IC50 at hPDE8B came to 7.33 µM; against Human PDE7B (hPDE7B), 0.21 µM.

Turning to `Nc1cncn2c(C3CCCCC3)nnc12` [Example 189, 3-cyclohexyl[1,2,4]triazolo[4,3-c]pyrimidin-8-amine], the inhibition at 10 µM on hPDE10A (setting [1]) stood at 0.9%; at hPDE4D (setting [2]) it was 22%; on hPDE8B, 24%. The compound also came in with an IC50 against Human PDE7B (hPDE7B) of 0.47 µM.

As for `Nc1nccn2c([C@H]3CCCC(F)(F)C3)nnc12` [Example 212, 3-[(1S)-3,3-difluorocyclohexyl][1,2,4]triazolo[4,3-a]pyrazin-8-amine], the IC50 at hPDE10A is 15.6 µM; at hPDE4D, 15.9 µM; on hPDE8B it was 6.07 µM; against Human PDE7B (hPDE7B) it was 0.04 µM.

`CC1(C)CCCN(c2nnc3c(N)ncc(Cl)n23)C1` [Example 248, 5-chloro-3-(3,3-dimethylpiperidin-1-yl) [1,2,4]triazolo[4,3-a]pyrazin-8-amine]: the IC50 at hPDE10A was 5.57 µM; on hPDE4D, 1.88 µM; at hPDE8B, 1.51 µM; at Human PDE7B (hPDE7B), under 0.01 µM.

(Values after US20190185479A1, “BICYCLIC NITROGENATED HETEROCYCLIC COMPOUND” (MITSUBISHI TANABE PHARMA CORPORATION, priority 2016, published 2019).)
